{
  "source": "patent US11472804B2",
  "about": "“Compositions and methods for modulating hair growth” (The Regents of the University of California, priority 2017, dated 2022)",
  "key": {"Ldh": {"test_system": "Ldh", "assay": "Ldh enzyme activity assay in the epidermis of topically treated animals", "format": "in vivo, mice", "conditions": "topical, 48 hours during telogen", "procedure": "(§1) FIG. 7A: Animals treated topically with UK-5099 (20 μM) show pigmentation and hair growth, indicative of entry into anagen, after 8 days of treatment. Full anagen, indicated by full coat of hair, is achieved after 14 days of treatment. […] Images shown are representative of at least 14 mice from 7 independent experiments. Scale bars indicate 100 micrometers. FIG. 7B: Graph showing time to observed phenotype in vehicle versus UK-5099 treated mice. n=6 mice per condition. Shown as mean±SEM. […] Ldh activity is indicated by purple stain; pink is nuclear fast red counterstain. Scale bars indicate 50 micrometers. FIG. 7D: Metabolomic analysis of Lactate on HFSCs isolated from UK-5099 treated skin for 48 hours; Each bar represents the average signal for each condition where n=9 mice pooled from 3 independent experiments. Shown as mean±SEM. Paired t-test was performed, p<0.05.\nTo determine whether Ldha expression patterns correlate with activity of the Ldh enzyme, a colorimetric-based enzymatic assay was used to assess Ldh activity capacity in situ. Typically performed on protein lysates or aliquots with a plate reader, the Ldh activity assay was adapted to work in situ on frozen tissue sections. […]\n(§2) Quantification of the hair cycle across at least 6 pairs of animals (vehicle vs UK-5099) indicated a strong acceleration of the hair cycle, in as few as 6-9 days (FIG. 7B)."}, "HFSCs": {"test_system": "HFSCs", "assay": "Metabolomic analysis of lactate on HFSCs isolated from treated skin", "format": "in vivo, mice", "conditions": "topical application, treated skin for 48 hours", "procedure": "as §1, §2"}, "hair cycle": {"test_system": "hair cycle", "assay": "Topical treatment of mice in telogen with UK-5099, hair cycle", "format": "in vivo", "procedure": "as §1, §2"}, "[1]": {"conditions": "topical treatment of animals in telogen (day 50)"}},
  "note": "Entries after “also recorded” stand apart in the source; their conditions may differ.",
  "data": [
    {"smiles": "N#C/C(=C\\c1cn(-c2ccccc2)c2ccccc12)C(=O)O", "note": "[UK-5099, (E)-2-Cyano-3-(1-phenyl-1H-indol-3-yl)acrylic acid]", "values": [
      {"measurement": "Ldh activity in HFSCs and interfollicular epidermis", "setting": "Ldh", "result": "increased Ldh activity; also recorded: Ldh enzyme activity also seen in interfollicular epidermis"},
      {"measurement": "total levels of lactate in sorted HFSCs", "setting": "HFSCs", "result": "increases total levels of lactate"},
      {"measurement": "acceleration of the hair cycle", "setting": "hair cycle; [1]", "result": "robust acceleration of the hair cycle"},
      {"measurement": "proliferation of the interfollicular epidermis", "setting": "hair cycle; [1]", "result": "minor hyperproliferation of the interfollicular epidermis"},
      {"measurement": "skin pathology, hair cycle stage", "setting": "hair cycle; topical, 20 μM, at 8 weeks", "result": "enter an accelerated anagen"},
      {"measurement": "full anagen, indicated by full coat of hair, time of treatment", "setting": "hair cycle; topical, 20 μM, mice", "result": 14, "unit": "days"},
      {"measurement": "pigmentation and hair growth, indicative of entry into anagen, time of treatment", "setting": "hair cycle; topical, 20 μM, mice", "result": 8, "unit": "days"},
      {"measurement": "quantification of the hair cycle, time to acceleration", "setting": "hair cycle; topical, at least 6 pairs of animals, vehicle vs UK-5099", "result": "6 to 9", "unit": "days"}
    ]}
  ]
}
